Data from patent publication US11332470B2, “CXCR4 inhibitors and uses thereof” (X4 Pharmaceuticals, Inc., priority 2016, dated 2022).

What was measured:
[1] = molecular target: T1, CXCR4 (U87.CXCR4 cells) (Homo sapiens, UniProt P61073); experiment: Intracellular CXCL-12-induced calcium mobilization assay (FLIPR); type: cell-based; conditions: CXCL-12 25-50 ng/mL, read-out: IC50 CXCL-12 Ca2+ flux U87.CXCR4+
T1 construct: expressed in transfected cells; host or cells: U87 (U87.CXCR4)
Experimental: Intracellular CXCL-12-Induced Calcium Mobilization Assay
Intracellular calcium mobilization induced by chemokines or chemokine-derived peptides were evaluated using a calcium responsive fluorescent probe and a FLIPR system. The CXCR-4 transfected U87 cell line (U87.CXCR4) cells were seeded in gelatine-coated black-wall 96-well plates at 20,000 cells per well and incubated for 12 hours. Cells were then loaded with the fluorescent calcium probe Fluo-2 acetoxymethyl at 4 μM final concentration in assay buffer (Hanks' balanced salt solution with 20 mM HEPES buffer and 0.2% bovine serum albumin, pH 7.4) for 45 min at 37° C. The intracellular calcium mobilization induced by the CXCL-12 (25-50 ng/mL) was then measured at 37° C. by monitoring the fluorescence as a function of time in all the wells simultaneously using a fluorometric imaging plate reader (FLIPR Tetra, Molecular Devices).

[2] = in vitro; conditions: human, Caco-2, pH 7.4
Experimental: The goal of this assay was to evaluate the intestinal absorption potential of drug candidates using Caco-2 cell lines.
1. Prewarm Prewarm HBSS Buffer in 37° C. water bath
2. Sonicate Take compounds from −20° C., sonicate for a few minutes (no less than 1 minute)
• Donor solution buffer: For A-to-B Direction: HBSS buffer with 0.3% DMSO and 5 μM LY: add 150 μL DMSO and 50 μL LY (5 mM) into 50 ml HBSS buffer (pH 7.4). HBSS buffer with 0.1% DMSO and 5 μM LY: add 50 μL DMSO and 50 μL LY (5 mM) into 50 mL HBSS buffer (pH 7.4). For B-to-A Direction: HBSS buffer with 0.3% DMSO: add 150 μL DMSO into 50 ml HBSS buffer (pH 7.4). HBSS buffer with 0.1% DMSO: add 50 μL DMSO into 50 ml HBSS buffer (pH 7.4). Receiver Solution Buffer: For A-to-B Direction: Prepare HBSS buffer with 0.4% DMSO: add 200 μL DMSO into 50 ml HBSS buffer (pH 7.4). For B-to-A Direction: Prepare HBSS buffer with 0.4% DMSO and 5 μM LY: add 200 μL DMSO and 50 μL LY (5 mM) into 50 ml HBSS buffer (pH 7.4).
4. Measure TEER Take cell culture plate out of incubator, wash the cell monolayers with HBSS buffer, and then measure TEER values at Rm temperature. 5. Centrifuge Centrifuge the compound solution (from step 3) at 4000 rpm for 5 min before loading to donor chambers. 6. Dosing Add solution based on the volumes listed in the following table (make sure to take extra 100 μL of donor sample for TO as Backup).
7. Apical LYT0 samples To determine LY concentration in the apical chamber, take 100 μL sample from apical chambers into an opaque plate for LYT0. 8. Prewarm Prewarm apical and basolateral plates at 37° C. for about 5 min, then begin transport by placing the apical plate onto basolateral plate. 9. Incubation Keep the plates in incubator at 37° C. for 90 min. 10.
Prepare Working Solution in MeOH/H2O (1:1)
• Prepare 1×solution: 3 μL (20×)+57 μL of 0.4% DMSO HBSS+60 μL ACN with IS (Osalmid or Imipramine)−120 μL (1×) 11. Transport termination Separate the apical plate from the basolateral plate after 90-min incubation. 12. Measure LY Take 100 μL samples from basolateral plate to an opaque plate as LYT90. 13. Measure LY concentrations for LYT0 and LYT90 by Fluorometer (at excitation of 485 nm/emission of 535 nm). 14.
Study details: Test concentration 10 μM
Test systems: Caco-2/HBSS solution
Incubation conditions: 0, 90 min at 37° C.
Sample size: Duplicates (n=2)
Bioanalytical method: LC-MS/MS
For Millicell-24 Cell Culture Plates: surface area of the membrane=0.7 cm^2, VA=0.8 mL (A-to-B) or 0.4 mL (B-to-A)
The compound numbers correspond to the compound numbers in Table 1.

[3] = molecular target: T2, CXCR4 (Jurkat cells expressing CXCR4) (Homo sapiens, UniProt P61073); experiment: Chemokine (CXCL12-AF647) binding inhibition assay; conditions: CXCL12-AF647 25 ng/mL, read-out: IC50 CXCL-12 binding Jurkat
T2 construct: Jurkat cells expressing CXCR4; endogenous in cells; host or cells: Jurkat
T2 sequence (P61073 whole entry): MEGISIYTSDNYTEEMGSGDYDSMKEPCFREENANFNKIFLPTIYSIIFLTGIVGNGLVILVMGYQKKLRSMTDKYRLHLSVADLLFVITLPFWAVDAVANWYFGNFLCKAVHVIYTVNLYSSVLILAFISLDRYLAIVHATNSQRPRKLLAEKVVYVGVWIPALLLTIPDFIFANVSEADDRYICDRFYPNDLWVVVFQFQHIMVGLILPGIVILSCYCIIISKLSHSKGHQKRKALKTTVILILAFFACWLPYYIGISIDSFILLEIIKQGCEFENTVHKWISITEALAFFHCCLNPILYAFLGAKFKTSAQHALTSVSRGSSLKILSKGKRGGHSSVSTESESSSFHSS
Experimental: Chemokine (CXCL12-AF647) Binding Inhibition Assay
Jurkat cells expressing CXCR4 were washed once with assay buffer (Hanks' balanced salt solution with 20 mM HEPES buffer and 0.2% bovine serum albumin, pH 7.4) and then incubated for 15 min at room temperature with the test compounds diluted in assay buffer at dose-dependent concentrations. Subsequently, CXCL12-AF647 (25 ng/mL) was added to the compound-incubated cells. The cells were incubated for 30 min at room temperature. Thereafter, the cells were washed twice in assay buffer, fixed in 1% paraformaldehyde in PBS, and analyzed on the FL4 channel of a FACSCalibur flow cytometer equipped with a 635-nm red diode laser (Becton Dickinson, San Jose, Calif., USA).
The percentages of inhibition of CXCL12-AF647 binding were calculated according to the formula: [1−((MFI−MFINC)/(MFIPC−MFINC))]×100 where MFI is the mean fluorescence intensity of the cells incubated with CXCL12-AF647 in the presence of the inhibitor, MFINC is the mean fluorescence intensity measured in the negative control (i.e., autofluorescence of unlabeled cells), and MFIPC is the mean fluorescence intensity of the positive control (i.e., cells exposed to CXCL12-AF647 alone).

T1 sequence (P61073 whole entry): as above

IC50 [1]	Papp A→B at 90 min, 10 μM [2]	Papp B→A at 90 min, 10 μM [2]	efflux ratio at 90 min, 10 μM [2]	IC50 [3]	Compound
≥ 1000 nM	0.1 to 10 ×10⁻⁶ cm/s	10 to 30 ×10⁻⁶ cm/s	0.1 to 10	100 to 1000 nM	CN1CCN(c2cccc3[nH]c(CN4CCCC4c4nccn4C)nc23)CC1 (stereo not shown) [Compound I-51]
0.01 to 100 nM	0.1 to 10 ×10⁻⁶ cm/s	10 to 30 ×10⁻⁶ cm/s	0.1 to 10	0.01 to 100 nM	Cc1cccnc1C1CCCN1Cc1nccn1CC1CCN(C)CC1 (stereo not shown) [Compound I-52]
≥ 1000 nM	0.1 to 10 ×10⁻⁶ cm/s	10 to 30 ×10⁻⁶ cm/s	0.1 to 10	0.01 to 100 nM	Cc1cccnc1C1CCCN1Cc1ncccc1N1CCN(C)CC1 (stereo not shown) [Compound I-53]
100 to 1000 nM	10 to 30 ×10⁻⁶ cm/s	10 to 30 ×10⁻⁶ cm/s	0.1 to 10	0.01 to 100 nM	CN1CCC(n2c(CN3CCCC3c3ccccn3)nc3ccccc32)CC1 (stereo not shown) [Compound I-54]
≥ 1000 nM	0.1 to 10 ×10⁻⁶ cm/s	10 to 30 ×10⁻⁶ cm/s	0.1 to 10	100 to 1000 nM	CN1CCC(n2ccnc2CN2CCCC2c2ccccn2)CC1 (stereo not shown) [Compound I-55]
≥ 1000 nM	10 to 30 ×10⁻⁶ cm/s	10 to 30 ×10⁻⁶ cm/s	0.1 to 10	100 to 1000 nM	CN1CCN(c2cccnc2CN2CCCC2c2ccccn2)CC1 (stereo not shown) [Compound I-56]
100 to 1000 nM	10 to 30 ×10⁻⁶ cm/s	10 to 30 ×10⁻⁶ cm/s	0.1 to 10	0.01 to 100 nM	c1ccc(C2CCCN2Cc2nc3ccccn3c2N2CCN(C3CC3)CC2)nc1 (stereo not shown) [Compound I-57]
0.01 to 100 nM	10 to 30 ×10⁻⁶ cm/s	10 to 30 ×10⁻⁶ cm/s	0.1 to 10	0.01 to 100 nM	CN1CCN(c2c(CN3CCCC3c3ncccc3F)nc3ccccn23)CC1 (stereo not shown) [Compound I-60]
100 to 1000 nM	10 to 30 ×10⁻⁶ cm/s	10 to 30 ×10⁻⁶ cm/s	0.1 to 10	0.01 to 100 nM	CN1CCN(c2c(CN3CCCC3c3ccccn3)nc3c(F)cccn23)CC1 (stereo not shown) [Compound I-61]
0.01 to 100 nM	0.1 to 10 ×10⁻⁶ cm/s	10 to 30 ×10⁻⁶ cm/s	0.1 to 10	0.01 to 100 nM	CN1CCN(c2c(CN3CCCC3c3ccccn3)nc3cc(F)ccn23)CC1 (stereo not shown) [Compound I-62]
100 to 1000 nM	0.1 to 10 ×10⁻⁶ cm/s	10 to 30 ×10⁻⁶ cm/s	0.1 to 10	0.01 to 100 nM	CN1CCN(c2c(CN3CCCC3c3ccccn3)nc3cccc(F)n23)CC1 (stereo not shown) [Compound I-64]
≥ 1000 nM	> 30 ×10⁻⁶ cm/s	> 30 ×10⁻⁶ cm/s	0.1 to 10	100 to 1000 nM	c1ccc(C2CCCN2Cc2ccccc2-n2cccn2)nc1 (stereo not shown) [Compound I-65]
≥ 1000 nM	0.1 to 10 ×10⁻⁶ cm/s	10 to 30 ×10⁻⁶ cm/s	0.1 to 10	100 to 1000 nM	CN1CCN(c2c(CN3CCCC3c3ncc[nH]3)nc3ccccn23)CC1 (stereo not shown) [Compound I-68]
0.01 to 100 nM	0.1 to 10 ×10⁻⁶ cm/s	10 to 30 ×10⁻⁶ cm/s	10 to 30	0.01 to 100 nM	CN1CCN(c2c(CN3CCCC3c3nccn3C)nc3ccccn23)CC1 (stereo not shown) [Compound I-69]
≥ 1000 nM	10 to 30 ×10⁻⁶ cm/s	> 30 ×10⁻⁶ cm/s	0.1 to 10	100 to 1000 nM	c1ccc(C2CCCN2Cc2ncccc2-n2ccnc2)nc1 (stereo not shown) [Compound I-75]
0.01 to 100 nM	10 to 30 ×10⁻⁶ cm/s	0.1 to 10 ×10⁻⁶ cm/s	0.1 to 10	0.01 to 100 nM	CN1CCN(c2c(CN3CCCC3c3ccc(F)cn3)nc3ccccn23)CC1 (stereo not shown) [Compound I-76]

Compound	IC50 [1]	Papp A→B at 90 min, 10 μM [2]	Papp B→A at 90 min, 10 μM [2]	efflux ratio at 90 min, 10 μM [2]	IC50 [3]
CN1CC=C(c2c(CN3CCCC3c3ccccn3)nc3ccccn23)CC1 (stereo not shown) [Compound I-79]	0.01 to 100 nM	0.1 to 10 ×10⁻⁶ cm/s	> 30 ×10⁻⁶ cm/s	0.1 to 10	0.01 to 100 nM
